#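 48-hour exposure; five concentrations; linearly interpolated endpoints. TGI: concentration producing complete growth inhibition.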
# Columns and labels:
# Experiment in all cases: NCI anticancer screen, dose series, 48 h
# UACC-257 melanoma = system: UACC-257 melanoma
# OVCAR-3 ovarian = system: OVCAR-3 ovarian
# UO-31 renal = system: UO-31 renal
# UACC-62 melanoma = system: UACC-62 melanoma
# MCF7 breast = system: MCF7 breast
# HCT-15 colon = system: HCT-15 colon
# DU-145 prostate = system: DU-145 prostate
# NCI-H23 lung = system: NCI-H23 lung
# SK-MEL-2 melanoma = system: SK-MEL-2 melanoma
# HS 578T breast = system: HS 578T breast
# SF-539 CNS = system: SF-539 CNS
# COLO 205 colon = system: COLO 205 colon
# MDA-MB-435 = system: MDA-MB-435
# OVCAR-4 ovarian = system: OVCAR-4 ovarian
# NCI/ADR-RES ovarian = system: NCI/ADR-RES ovarian
# CAKI-1 renal = system: CAKI-1 renal
# K-562 leukemia = system: K-562 leukemia
# SK-OV-3 ovarian = system: SK-OV-3 ovarian
# MALME-3M melanoma = system: MALME-3M melanoma
SMILES,TGI (UACC-257 melanoma) [µM],TGI (OVCAR-3 ovarian) [µM],TGI (UO-31 renal) [µM],TGI (UACC-62 melanoma) [µM],TGI (MCF7 breast) [µM],TGI (HCT-15 colon) [µM],TGI (DU-145 prostate) [µM],TGI (NCI-H23 lung) [µM],TGI (SK-MEL-2 melanoma) [µM],TGI (HS 578T breast) [µM],TGI (SF-539 CNS) [µM],TGI (COLO 205 colon) [µM],TGI (MDA-MB-435) [µM],TGI (OVCAR-4 ovarian) [µM],TGI (NCI/ADR-RES ovarian) [µM],TGI (CAKI-1 renal) [µM],TGI (K-562 leukemia) [µM],TGI (SK-OV-3 ovarian) [µM],TGI (MALME-3M melanoma) [µM]
COc1ccc(/C=C2\NC(=S)N(/C=C3\C(=O)Oc4ccccc4C3=O)C2=O)cc1OC,> 100,> 100,> 100,> 100,> 100,> 100,> 100,> 100,> 100,> 100,> 100,> 100,> 100,> 100,> 100,> 100,> 100,> 100,
CCOC(=O)c1cc(=O)c2ccnc3c2n1CCS3,> 100,> 100,> 100,> 100,> 100,> 100,> 100,> 100,> 100,> 100,> 100,> 100,> 100,,> 100,> 100,,> 100,
Cn1c(=O)c2c(nc3n(CCCCl)c(=O)ccn23)n(C)c1=O,> 100,> 100,> 100,> 100,> 100,> 100,> 100,> 100,> 100,> 100,> 100,> 100,> 100,> 100,> 100,> 100,> 100,> 100,
COC(=O)/C=C\COCC1C2CCC(=O)C21 (centres undefined),> 25,> 25,> 25,> 25,> 25,> 25,> 25,> 25,> 25,,19.4,> 25,> 25,> 25,> 25,1.29,> 25,> 25,13.3
COc1ccc(/C=N/N=C(\N)NO)cc1O,,,> 100,> 100,,> 100,,> 100,> 100,,94.4,> 100,,> 100,,> 100,> 100,> 100,63.6
NC(=O)Nc1ccc(S(=O)(=O)Nc2ccc(S(N)(=O)=O)cc2)cc1,> 100,> 100,> 100,> 100,> 100,> 100,> 100,> 100,> 100,,,> 100,> 100,> 100,> 100,> 100,> 100,,> 100
CC(=O)C1(Cc2cccc3ccccc23)S(=O)(=O)OCCOS1(=O)=O,16.6,36.4,29.3,31.9,39.7,41.6,42.2,60.4,,,37.8,30.8,27.8,75.9,61.2,30.1,> 100,8.9,33
CN1CN(c2ccccc2)C2(CCN(Cc3csc4ccccc34)CC2)C1=O,31.9,27.4,12.3,> 100,37.3,> 100,> 100,80.4,,,48.3,30.2,28.7,,61.1,> 100,> 100,> 100,45.5
N=C(N)C1CN(CCCCCCCCCCN2CC(C(=N)N)C(=O)NC2=O)C(=O)NC1=O (centres undefined),> 10,> 10,,> 10,> 10,> 10,,> 10,> 10,> 10,> 10,> 10,> 10,> 10,> 10,> 10,> 10,> 10,> 10
CN1CCN(C(=S)N(C(=O)c2ccc(Cl)cc2)c2ccccc2)CC1,> 100,> 100,> 100,> 100,> 100,> 100,> 100,> 100,> 100,> 100,,> 100,> 100,> 100,,,> 100,,> 100
CCN1CCC(O)(c2ccc(Oc3ccccc3)cc2)C(C(=O)c2ccc(Oc3ccccc3)cc2)C1 (centres undefined),26.3,31.9,21.8,25.9,19.5,25.7,27.5,27.7,30.1,78.1,23.4,30,26.2,25.3,35.1,31.2,> 100,,34.6
Cc1cc(-c2cccc3ccccc23)c(C#N)c(=S)n1C1OC(CO)C(O)C(O)C1O (centres undefined),> 100,> 100,,> 100,> 100,> 100,,> 100,> 100,> 100,> 100,> 100,> 100,> 100,> 100,> 100,,> 100,> 100
COc1c2cc(C(C)(C)C)cc1Cc1cccc(c1OCc1cccc([N+](=O)[O-])c1)Cc1cc(C(C)(C)C)cc(c1OC)Cc1cccc(c1OCc1cccc([N+](=O)[O-])c1)Cc1cc(C(C)(C)C)cc(c1OC)Cc1cccc(c1OCc1cccc([N+](=O)[O-])c1)C2,> 50,> 50,> 50,> 50,> 50,> 50,> 50,> 50,> 50,,> 50,> 50,> 50,,> 50,> 50,> 50,,> 50
CC(=O)N1C(OC(C)C)CC(C)N1c1ccccc1 (centres undefined),> 10,> 10,,,> 10,> 10,> 10,> 10,> 10,> 10,> 10,> 10,> 10,> 10,> 10,> 10,> 10,,> 10
